Target: T1, K-Ras G12C (Homo sapiens, UniProt P01116, G12C)
T1 construct: This protein contained 188 amino acids in total, including an N-terminal 6-Histidine tag; made in house; host or cells: E. coli BL21
Test: CAF assay (% CAF; method in Example 7, not in this part)
Assay type: binding
Settings: 10 uM compound, 1 h incubation

| SMILES | % CAF @ 10 uM, 1h |
| --- | --- |
| C=CC(=O)N1CCN(c2nc(=O)n3c4c(c(-c5cc(Cl)c(F)cc5F)c(Cl)cc24)SC[C@@H]3CN2CCN(CC)CC2)[C@@H](C)C1 [Example 412, (3S)-7-((S)-4-acryloyl-2-methylpiperazin-1-yl)-9-chloro-10-(5-chloro-2,4-difluorophenyl)-3-((4-ethylpiperazin-1-yl)methyl)-2H-[1,4]thiazino[2,3,4-ij]quinazolin-5(3H)-one] | 73.6% |
| C=CC(=O)N1CCN(c2nc(=O)n3c4c(c(-c5ccc(F)cc5F)c(Cl)cc24)SC[C@@H]3CC2CCN(CC)CC2)[C@@H](C)C1 [Example 413, (3S)-7-((S)-4-acryloyl-2-methylpiperazin-1-yl)-9-chloro-10-(2,4-difluorophenyl)-3-((1-ethylpiperidin-4-yl)methyl)-2H-[1,4]thiazino[2,3,4-ij]quinazolin-5(3H)-one] | 86.6% |
| C=CC(=O)N1CCN(c2nc(=O)n3c4c(c(-c5ccc(F)cc5F)c(Cl)cc24)SC[C@@H]3CC2CCN(CC(F)F)CC2)[C@@H](C)C1 [Example 414, (3S)-7-((S)-4-acryloyl-2-methylpiperazin-1-yl)-9-chloro-3-((1-(2,2-difluoroethyl)piperidin-4-yl)methyl)-10-(2,4-difluorophenyl)-2H-[1,4]thiazino[2,3,4-ij]quinazolin-5(3H)-one] | 92% |
| C=CC(=O)N1CCN(c2nc(=O)n3c4c(c(-c5ccc(F)cc5F)c(Cl)cc24)SC[C@@H]3CC2CCN(C3COC3)CC2)[C@@H](C)C1 [Example 415, (3S)-7-((S)-4-acryloyl-2-methylpiperazin-1-yl)-9-chloro-10-(2,4-difluorophenyl)-3-((1-(oxetan-3-yl)piperidin-4-yl)methyl)-2H-[1,4]thiazino[2,3,4-ij]quinazolin-5(3H)-one] | 85.4% |
| C=CC(=O)N1CCN(c2nc(=O)n3c4c(c(-c5cc(F)c(F)cc5F)c(Cl)cc24)SC[C@@H]3CN2CCN(CC)CC2)[C@@H](C)C1 [Example 416, (3S)-7-((S)-4-acryloyl-2-methylpiperazin-1-yl)-9-chloro-3-((4-ethylpiperazin-1-yl)methyl)-10-(2,4,5-trifluorophenyl)-2H-[1,4]thiazino[2,3,4-ij]quinazolin-5(3H)-one] | 91.2% |
| C=CC(=O)N1C2CN(c3nc(=O)n4c5c(c(-c6ccc(F)cc6F)c(C(F)(F)F)cc35)SCC4)CC1CC1(COC1)C2 [Example 417, 7-(9-acryloyl-7,9-diazaspiro[bicyclo[3.3.1]nonane-3,3′-oxetan]-7-yl)-10-(2,4-difluorophenyl)-9-(trifluoromethyl)-2,3-dihydro-5H-[1,4]thiazino[2,3,4-ij]quinazolin-5-one] | 2% |
| C=C(F)C(=O)N1C2CC(=O)CC1CN(c1nc(=O)n3c4c(c(-c5ccc(F)cc5F)c(C(F)(F)F)cc14)SCC3)C2 [Example 418, 10-(2,4-difluorophenyl)-7-(9-(2-fluoroacryloyl)-7-oxo-3,9-diazabicyclo[3.3.1]nonan-3-yl)-9-(trifluoromethyl)-2,3-dihydro-5H-[1,4]thiazino[2,3,4-ij]quinazolin-5-one] | 58% |
| C=CC(=O)N1CCN(c2nc(=O)n3c4c(c(-c5ccc(F)c6[nH]ncc56)c(Cl)cc24)SCC3)[C@@H](C)C1 [Example 419, 7-((S)-4-acryloyl-2-methylpiperazin-1-yl)-9-chloro-10-(7-fluoro-1H-indazol-4-yl)-2,3-dihydro-5H-[1,4]thiazino[2,3,4-ij]quinazolin-5-one] | 54.3% |
| CN(C)C/C=C/C(=O)N1C2CC(=O)CC1CN(c1nc(=O)n3c4c(c(-c5ccc(F)cc5F)c(C(F)(F)F)cc14)SCC3)C2 [Example 420, (E)-10-(2,4-difluorophenyl)-7-(9-(4-(dimethylamino)but-2-enoyl)-7-oxo-3,9-diazabicyclo[3.3.1]nonan-3-yl)-9-(trifluoromethyl)-2,3-dihydro-5H-[1,4]thiazino[2,3,4-ij]quinazolin-5-one] | 93% |
